According to patent US5789431A, “Naphthoquinone antitumor compound and method” (The University of North Carolina at Chapel Hill, priority 1996, dated 1998):

How the values were obtained:
RXF-631 = test: in vitro renal cancer cell growth inhibition (NCI screen)
UO-31 = test: as above
NCI-H522 = test: in vitro non-small cell lung cancer cell growth inhibition (NCI screen)
CCRF-CEM = test: in vitro leukemia cell growth inhibition (NCI screen)
HOP-92 = test: in vitro non-small cell lung cancer cell growth inhibition (NCI screen)
M19-MEL = test: in vitro melanoma cell growth inhibition (NCI screen)
SNB-75 = test: in vitro CNS cancer cell growth inhibition (NCI screen)
SF-539 = test: as above
HL-60(TB) = test: in vitro leukemia cell growth inhibition (NCI screen)
ACHN = test: in vitro renal cancer cell growth inhibition (NCI screen)
RPMI-8226 = test: in vitro leukemia cell growth inhibition (NCI screen)
MALME-3M = test: in vitro melanoma cell growth inhibition (NCI screen)
UACC-257 = test: as above
NCI-H460 = test: in vitro non-small cell lung cancer cell growth inhibition (NCI screen)
786-0 = test: in vitro renal cancer cell growth inhibition (NCI screen)
CAKI-1 = test: as above
NCI-H266 = test: in vitro non-small cell lung cancer cell growth inhibition (NCI screen)
SW 620 = test: in vitro colon cancer cell growth inhibition (NCI screen)
LXFL 529 = test: in vitro non-small cell lung cancer cell growth inhibition (NCI screen)
HCT-15 = test: in vitro colon cancer cell growth inhibition (NCI screen)
K-562 = test: in vitro leukemia cell growth inhibition (NCI screen)
UACC-62 = test: in vitro melanoma cell growth inhibition (NCI screen)
HOP-18 = test: in vitro non-small cell lung cancer cell growth inhibition (NCI screen)
M14 = test: in vitro melanoma cell growth inhibition (NCI screen)
MOLT-4 = test: in vitro leukemia cell growth inhibition (NCI screen)
OVCAR-3 = test: in vitro ovarian cancer cell growth inhibition (NCI screen)
XF-498 = test: in vitro CNS cancer cell growth inhibition (NCI screen)
LOX1MVI = test: in vitro melanoma cell growth inhibition (NCI screen)
DLD-1 = test: in vitro colon cancer cell growth inhibition (NCI screen)
SF-295 = test: in vitro CNS cancer cell growth inhibition (NCI screen)
EKVX = test: in vitro non-small cell lung cancer cell growth inhibition (NCI screen)
NCI-H23 = test: as above
SF-268 = test: in vitro CNS cancer cell growth inhibition (NCI screen)
MDA-N = test: in vitro breast cancer cell growth inhibition (NCI screen)
MCF-7 = test: as above
OVCAR-4 = test: in vitro ovarian cancer cell growth inhibition (NCI screen); conditions: OVACR-4
HCT-116 = test: in vitro colon cancer cell growth inhibition (NCI screen)
SK-MEL-2 = test: in vitro melanoma cell growth inhibition (NCI screen)
COLO-205 = test: in vitro colon cancer cell growth inhibition (NCI screen)
SK-MEL-5 = test: in vitro melanoma cell growth inhibition (NCI screen)
PC-3 = test: in vitro prostate cancer cell growth inhibition (NCI screen)
HOP-62 = test: in vitro non-small cell lung cancer cell growth inhibition (NCI screen)
SN12C = test: in vitro renal cancer cell growth inhibition (NCI screen)
TK-10 = test: as above
KM 12 = test: in vitro colon cancer cell growth inhibition (NCI screen)
RXF-393 = test: in vitro renal cancer cell growth inhibition (NCI screen)
SK-MEL-28 = test: in vitro melanoma cell growth inhibition (NCI screen)
U 251 = test: in vitro CNS cancer cell growth inhibition (NCI screen)
SR = test: in vitro leukemia cell growth inhibition (NCI screen)
KM 20L2 = test: in vitro colon cancer cell growth inhibition (NCI screen)

CCn1c(Cc2ccc(F)cc2)nc2c1C(=O)c1ccccc1C2=O [Compound 66]
cytotoxicity log GI50 (RXF-631): -4.82 M
cytotoxicity log GI50 (UO-31): -5.33 M
cytotoxicity log GI50 (NCI-H522): -5.06 M
cytotoxicity log GI50 (CCRF-CEM): -5.08 M
cytotoxicity log GI50 (HOP-92): -4.97 M
cytotoxicity log GI50 (M19-MEL): -5.02 M
cytotoxicity log GI50 (SNB-75): -4.80 M
cytotoxicity log GI50 (SF-539): -4.88 M
cytotoxicity log GI50 (HL-60(TB)): -5.33 M
cytotoxicity log GI50 (ACHN): -4.85 M
cytotoxicity log GI50 (RPMI-8226): -4.94 M
cytotoxicity log GI50 (MALME-3M): -4.94 M
cytotoxicity log GI50 (UACC-257): -5.10 M
cytotoxicity log GI50 (NCI-H460): -4.90 M

CC(=O)NC1=C(NC(C)(C)C)C(=O)c2ccccc2C1=O [Compound 32]
cytotoxicity log GI50 (786-0): -5.47 M
cytotoxicity log GI50 (CAKI-1): -4.79 M
cytotoxicity log GI50 (NCI-H266): -4.84 M
cytotoxicity log GI50 (SW 620): -4.85 M
cytotoxicity log GI50 (LXFL 529): -4.82 M
cytotoxicity log GI50 (CCRF-CEM): -5.63 M
cytotoxicity log GI50 (HCT-15): -4.76 M
cytotoxicity log GI50 (M19-MEL): -4.81 M
cytotoxicity log GI50 (SNB-75): -4.86 M
cytotoxicity log GI50 (K-562): -5.14 M
cytotoxicity log GI50 (SF-539): -4.80 M
cytotoxicity log GI50 (HL-60(TB)): -5.65 M
cytotoxicity log GI50 (UACC-62): -4.86 M
cytotoxicity log GI50 (RPMI-8226): -4.93 M
cytotoxicity log GI50 (HOP-18): -4.83 M
cytotoxicity log GI50 (M14): -4.77 M
cytotoxicity log GI50 (UACC-257): -4.80 M
cytotoxicity log GI50 (MOLT-4): -5.19 M
cytotoxicity log GI50 (OVCAR-3): -4.81 M
cytotoxicity log GI50 (XF-498): -4.95 M
cytotoxicity log GI50 (LOX1MVI): -4.78 M
cytotoxicity log GI50 (DLD-1): -4.80 M

O=C(O)CCCc1nc2c(n1Cc1ccccc1)C(=O)c1ccccc1C2=O [Compound 57]
cytotoxicity log GI50 (SF-295): -4.59 M
cytotoxicity log GI50 (EKVX): -4.50 M
cytotoxicity log GI50 (NCI-H23): -4.50 M
cytotoxicity log GI50 (NCI-H522): -4.53 M
cytotoxicity log GI50 (CCRF-CEM): -5.28 M
cytotoxicity log GI50 (SF-268): -4.58 M
cytotoxicity log GI50 (MDA-N): -4.65 M
cytotoxicity log GI50 (MCF-7): -4.53 M
cytotoxicity log GI50 (HL-60(TB)): -4.54 M
cytotoxicity log GI50 (OVCAR-4): -4.69 M
cytotoxicity log GI50 (UACC-62): -4.76 M
cytotoxicity log GI50 (RPMI-8226): -4.73 M
cytotoxicity log GI50 (M14): -5.43 M
cytotoxicity log GI50 (HCT-116): -4.54 M
cytotoxicity log GI50 (MALME-3M): -4.80 M
cytotoxicity log GI50 (UACC-257): -4.60 M
cytotoxicity log GI50 (SK-MEL-2): -4.83 M
cytotoxicity log GI50 (OVCAR-3): -4.67 M

COc1ccc(CNC2=C(NC(C)=O)C(=O)c3ccccc3C2=O)cc1 [Compound 41]
cytotoxicity log GI50 (RXF-631): -5.19 M
cytotoxicity log GI50 (UO-31): -5.02 M
cytotoxicity log GI50 (SW 620): -5.09 M
cytotoxicity log GI50 (NCI-H23): -5.17 M
cytotoxicity log GI50 (NCI-H522): -5.86 M
cytotoxicity log GI50 (CCRF-CEM): -5.06 M
cytotoxicity log GI50 (HOP-92): -5.18 M
cytotoxicity log GI50 (M19-MEL): -5.02 M
cytotoxicity log GI50 (COLO-205): -5.03 M
cytotoxicity log GI50 (K-562): -5.11 M
cytotoxicity log GI50 (SF-539): -5.13 M
cytotoxicity log GI50 (HL-60(TB)): -5.77 M
cytotoxicity log GI50 (ACHN): -5.68 M
cytotoxicity log GI50 (OVCAR-4): -5.09 M
cytotoxicity log GI50 (UACC-62): -5.11 M
cytotoxicity log GI50 (HCT-116): -5.29 M
cytotoxicity log GI50 (MALME-3M): -5.08 M
cytotoxicity log GI50 (UACC-257): -5.06 M
cytotoxicity log GI50 (MOLT-4): -5.43 M
cytotoxicity log GI50 (SK-MEL-2): -5.04 M
cytotoxicity log GI50 (SK-MEL-5): -5.13 M
cytotoxicity log GI50 (OVCAR-3): -5.09 M
cytotoxicity log GI50 (LOX1MVI): -5.07 M
cytotoxicity log GI50 (DLD-1): -5.07 M

CCNC1=C(NC(=O)CCl)C(=O)c2ccccc2C1=O [Compound 44]
cytotoxicity log GI50 (PC-3): -4.80 M
cytotoxicity log GI50 (EKVX): -4.80 M
cytotoxicity log GI50 (NCI-H522): -4.82 M
cytotoxicity log GI50 (HOP-62): -4.78 M
cytotoxicity log GI50 (MDA-N): -4.81 M
cytotoxicity log GI50 (SN12C): -4.75 M
cytotoxicity log GI50 (OVCAR-4): -4.77 M
cytotoxicity log GI50 (TK-10): -4.75 M
cytotoxicity log GI50 (HCT-116): -4.74 M
cytotoxicity log GI50 (KM 12): -4.77 M
cytotoxicity log GI50 (SK-MEL-5): -4.78 M
cytotoxicity log GI50 (OVCAR-3): -4.75 M
cytotoxicity log GI50 (RXF-393): -4.78 M
cytotoxicity log GI50 (SK-MEL-28): -4.75 M

CCC(c1ccc(F)cc1)c1nc2c(n1CC)C(=O)c1ccccc1C2=O (stereo not drawn) [Compound 65]
cytotoxicity log GI50 (RXF-631): -4.71 M
cytotoxicity log GI50 (NCI-H266): -4.82 M
cytotoxicity log GI50 (HOP-92): -4.75 M
cytotoxicity log GI50 (SN12C): -4.90 M
cytotoxicity log GI50 (U 251): -4.71 M
cytotoxicity log GI50 (HL-60(TB)): -4.74 M
cytotoxicity log GI50 (UACC-62): -4.95 M
cytotoxicity log GI50 (RPMI-8226): -4.68 M
cytotoxicity log GI50 (SR): -4.73 M
cytotoxicity log GI50 (MOLT-4): -4.73 M
cytotoxicity log GI50 (SK-MEL-2): -4.77 M
cytotoxicity log GI50 (RXF-393): -4.83 M
cytotoxicity log GI50 (XF-498): -4.70 M
cytotoxicity log GI50 (DLD-1): -5.69 M

CC(=O)NC1=C(NCC(C)C)C(=O)c2ccccc2C1=O [Compound 31]
cytotoxicity log GI50 (786-0): -4.84 M
cytotoxicity log GI50 (CAKI-1): -4.78 M
cytotoxicity log GI50 (KM 20L2): -4.67 M
cytotoxicity log GI50 (NCI-H266): -4.80 M
cytotoxicity log GI50 (UO-31): -4.74 M
cytotoxicity log GI50 (SW 620): -4.68 M
cytotoxicity log GI50 (LXFL 529): -4.79 M
cytotoxicity log GI50 (NCI-H23): -4.70 M
cytotoxicity log GI50 (CCRF-CEM): -5.14 M
cytotoxicity log GI50 (HCT-15): -4.75 M
cytotoxicity log GI50 (SF-268): -4.69 M
cytotoxicity log GI50 (HOP-92): -4.85 M
cytotoxicity log GI50 (M19-MEL): -4.73 M
cytotoxicity log GI50 (SN12C): -4.77 M
cytotoxicity log GI50 (SNB-75): -4.77 M
cytotoxicity log GI50 (K-562): -4.81 M
cytotoxicity log GI50 (SF-539): -4.76 M
cytotoxicity log GI50 (HL-60(TB)): -5.56 M
cytotoxicity log GI50 (UACC-62): -4.74 M
cytotoxicity log GI50 (HOP-18): -4.89 M
cytotoxicity log GI50 (TK-10): -4.68 M
cytotoxicity log GI50 (M14): -4.74 M
cytotoxicity log GI50 (HCT-116): -4.69 M
cytotoxicity log GI50 (MALME-3M): -4.72 M
cytotoxicity log GI50 (UACC-257): -4.73 M
cytotoxicity log GI50 (SK-MEL-5): -4.70 M
cytotoxicity log GI50 (OVCAR-3): -4.78 M
cytotoxicity log GI50 (RXF-393): -4.90 M
cytotoxicity log GI50 (XF-498): -4.85 M
cytotoxicity log GI50 (LOX1MVI): -4.81 M
cytotoxicity log GI50 (SK-MEL-28): -4.77 M
cytotoxicity log GI50 (DLD-1): -4.72 M
